Assay results: publication PMC4515083, “Selective Targeting of the TPX2 Site of Importin-α Using Fragment-Based Ligand Design” (Chemmedchem, 2015)

Target: T1, ΔIBB-importin-α (importin-α1, KPNA2) (Mus musculus, UniProt P52293)
T1 construct: modified pET-30a with TEV-cleavable His6/S-tag, tag cleaved; recombinant
Assay: direct ITC
Assay type: binding
Text: direct ITC on ΔIBB-importin-α (importin-α1, KPNA2)

First: NCCCC[C@H](NCc1cccc(-c2cccnc2)c1)C(N)=O [compound 16]
Second: NCCCC[C@@H](NCc1ccc(-c2cccnc2)cc1)C(N)=O [compound 15]
The Kd of the first is 2.9-fold lower: 1.3 ± 0.1 mM for the first, 3.8 ± 0.4 mM for the second. The first binds more tightly here.

Going from `NCCCC[C@H](NC(=O)c1ccc(-c2cccnc2)cc1)C(N)=O` [compound 14] to `NCCCC[C@H](NCc1ccc(-c2cccnc2)cc1)C(N)=O` [compound 11], the Kd falls from > 10 mM to 4 ± 0.5 mM. The second binds more tightly here.

`NCCCC[C@H](NCc1ccc(-c2cccnc2)s1)C(N)=O` [compound 17] was tested, and the Kd was 0.9 ± 0.1 mM.
